# From patent US9273029B2, “Pyridine-and pyrazine derivatives” (Merck Patent GmbH, priority 2011, dated 2016)
# How the values were obtained:
# [1] = molecular target: TANK binding kinase (TBK1) (Homo sapiens (Human), UniProt Q9UHD2); test: TBK1 enzyme assay (384-well Flashplate kinase assay); format: biochemical; conditions: 10 μM ATP, 120 Min at 30° C.
# Description: The kinase assay is performed as 384-well Flashplate assay (for e.g. Topcount measurement. 0.6 nM TANK binding kinase (TBK1), 800 nM biotinylated MELK-derived peptide (Biotin-Ah-Ah-[…]) SEQ ID NO: 2 and 10 μM ATP (spiked with 0.25 μCi ^33P-ATP/well) are incubated in a total volume of 50 μl (10 mM MOPS, 10 mM Mg-acetat, 0.1 mM EGTA, 1 mM DTT, 0.02% Brij35, 0.1% BSA, pH 7.5) with or without test compound for 120 Min at 30° C. The reaction is stopped with 25 μl 200 mM EDTA. After 30 Min at room temperature the liquid is removed and each well washed thrice with 100 μl 0.9% sodium chloride solution. Nonspecific reaction is determined in presence of 100 nM Staurosporine. Radioactivity is measured in a Topcount (PerkinElmer). Results (e.g. IC50-values) are calculated with program tools provided by the IT-department (e.g. AssayExplorer, Symyx).
# IKKε = IKKε (Homo sapiens (Human), UniProt Q14164); test: IKKε kinase assay (384-well Flashplate); format: biochemical; conditions: 10 μM ATP, 2 hours at 30° C.; read-out: IKKε enzyme assay IC50
# Description: IKKε—Kinase Assay (IKKepsilon)
# The kinase assay is performed either as 384-well Flashplate assay (for e.g. Topcount measurement). 1 nM IKKε, 800 nM biotinylated IκBα(19-42) peptide (Biotin-C6-C6-[…]) SEQ ID NO: 1 and 10 μM ATP (spiked with 0.3 μCi ^33P-ATP/well) are incubated in a total volume of 50 μl (10 mM MOPS, 10 mM Mg-acetat, 0.1 mM EGTA, 1 mM Dithiothreitol,0.02% Brij35, 0.1% BSA, 0.1% BioStab, pH 7.5) with or without test compound for 2 hours at 30° C. The reaction is stopped with 25 μl 200 mM EDTA. After 30 Min at room temperature the liquid is removed and each well washed thrice with 100 μl 0.9% sodium chloride solution. Non-specific reaction is determined in presence of 3 μM MSC2119074 (BX-795). Radioactivity is measured with Topcount (PerkinElmer). Results (e.g. IC50-values) are calculated with program tools provided by the IT-department (e.g. AssayExplorer, Symyx).
# Chain of TANK binding kinase (TBK1) (Q9UHD2 whole entry): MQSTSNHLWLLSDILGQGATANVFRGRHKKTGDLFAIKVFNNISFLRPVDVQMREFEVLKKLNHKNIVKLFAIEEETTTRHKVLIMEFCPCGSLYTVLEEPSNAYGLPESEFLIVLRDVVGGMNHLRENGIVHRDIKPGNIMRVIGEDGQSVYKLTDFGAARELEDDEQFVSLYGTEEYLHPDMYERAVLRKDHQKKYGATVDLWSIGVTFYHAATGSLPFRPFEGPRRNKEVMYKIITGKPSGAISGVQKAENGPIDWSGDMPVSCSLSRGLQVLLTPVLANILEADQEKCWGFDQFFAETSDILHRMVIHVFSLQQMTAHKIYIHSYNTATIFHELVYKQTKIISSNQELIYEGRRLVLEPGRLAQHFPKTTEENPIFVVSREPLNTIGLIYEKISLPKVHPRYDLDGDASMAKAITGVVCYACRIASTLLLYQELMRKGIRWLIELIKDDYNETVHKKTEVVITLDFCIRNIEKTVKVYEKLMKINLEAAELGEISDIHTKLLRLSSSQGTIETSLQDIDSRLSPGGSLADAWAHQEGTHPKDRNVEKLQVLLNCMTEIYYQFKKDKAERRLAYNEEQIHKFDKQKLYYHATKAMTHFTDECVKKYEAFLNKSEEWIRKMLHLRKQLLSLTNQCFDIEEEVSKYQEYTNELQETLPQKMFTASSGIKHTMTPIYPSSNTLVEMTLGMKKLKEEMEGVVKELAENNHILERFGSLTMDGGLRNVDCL
# Chain of IKKε (Q14164 whole entry): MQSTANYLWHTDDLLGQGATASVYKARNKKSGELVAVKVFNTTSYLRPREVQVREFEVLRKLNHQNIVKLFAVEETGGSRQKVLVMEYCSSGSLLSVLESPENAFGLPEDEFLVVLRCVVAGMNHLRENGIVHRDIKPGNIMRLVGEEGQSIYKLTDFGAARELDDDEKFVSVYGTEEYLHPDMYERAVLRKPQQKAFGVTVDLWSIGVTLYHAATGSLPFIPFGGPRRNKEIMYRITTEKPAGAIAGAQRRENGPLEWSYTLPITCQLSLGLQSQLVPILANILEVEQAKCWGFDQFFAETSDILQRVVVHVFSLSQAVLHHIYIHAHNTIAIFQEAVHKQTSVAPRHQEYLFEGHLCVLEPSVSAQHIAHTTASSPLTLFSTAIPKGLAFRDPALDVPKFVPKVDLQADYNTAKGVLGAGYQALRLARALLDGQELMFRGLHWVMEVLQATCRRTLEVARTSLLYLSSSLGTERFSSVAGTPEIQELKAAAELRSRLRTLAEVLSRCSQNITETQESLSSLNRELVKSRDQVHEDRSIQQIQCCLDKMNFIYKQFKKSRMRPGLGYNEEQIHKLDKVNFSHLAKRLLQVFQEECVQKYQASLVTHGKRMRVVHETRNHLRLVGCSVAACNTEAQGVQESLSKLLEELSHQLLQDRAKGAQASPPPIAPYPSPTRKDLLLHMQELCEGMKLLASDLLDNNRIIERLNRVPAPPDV
IC50 [1] [nM],IC50 (IKKε) [nM],Compound
150,830,"Nc1ncc(-c2cc[nH]c2)cc1C(=O)Nc1ccncc1 [Compound A59, 2-Amino-N-pyridin-4-yl-5-(1H-pyrrol-3-yl)-nicotinamide]"
1600,1900,"COC(=O)c1ccc(-c2cnc(N)c(C(=O)Nc3ccncc3)c2)cc1 [Compound A30, 4-[6-Amino-5-(pyridin-4-ylcarbamoyl)-pyridin-3-yl]-benzoic acid methyl ester]"
740,270,"Nc1ncc(-c2cnn(CCN3CCOCC3)c2)cc1C(=O)Nc1ccncc1 [Compound A51, 2-Amino-5-[1-(2-morpholin-4-yl-ethyl)-1H-pyrazol-4-yl]-N-pyridin-4-yl-nicotinamide]"
330,380,"Cn1ccc(-c2cnc(N)c(C(=O)Nc3ccncc3)c2)n1 [Compound A47, 2-Amino-5-(1-methyl-1H-pyrazol-3-yl)-N-pyridin-4-yl-nicotinamide]"
890,2400,"Nc1ncc(-c2ccc(CN3CCOCC3)s2)cc1C(=O)Nc1ccnc2ccoc12 [Compound A29, 2-Amino-N-furo[3,2-b]pyridin-7-yl-5-(5-morpholin-4-ylmethyl-thiophen-2-yl)-nicotinamide]"
120,150,"Cc1ccc(-c2cnc(N)c(C(=O)Nc3ccncc3)c2)s1 [Compound A3, 2-Amino-5-(5-methyl-thiophen-2-yl)-N-pyridin-4-yl-nicotinamide]"
150,1800,"Nc1ncc(-c2ccc(S(N)(=O)=O)cc2)cc1C(=O)Nc1ccncc1 [Compound A7, 2-Amino-N-pyridin-4-yl-5-(4-sulfamoyl-phenyl)-nicotinamide]"
810,2600,"Nc1ncc(-c2ccc(CN3CCOCC3)s2)cc1C(=O)Nc1ccncn1 [Compound A27, 2-Amino-5-(5-morpholin-4-ylmethyl-thiophen-2-yl)-N-pyrimidin-4-yl-nicotinamide]"
4200,1900,"Nc1ncc(-c2ccc(CN3CCCC3)s2)nc1C(=O)Nc1ccncc1 [Compound A14, 3-Amino-6-(5-pyrrolidin-1-ylmethyl-thiophen-2-yl)-pyrazine-2-carboxylic acid pyridin-4-ylamide]"
410,930,"Nc1ncc(-c2ccsc2)cc1C(=O)Nc1ccncc1 [Compound A49, 2-Amino-N-pyridin-4-yl-5-thiophen-3-yl-nicotinamide]"
740,1500,"COCCn1cc(-c2cnc(N)c(C(=O)Nc3ccncc3Cl)c2)cn1 [Compound A38, 2-Amino-N-(3-chloro-pyridin-4-yl)-5-[1-(2-methoxy-ethyl-)-1H-pyrazol-4-yl]nicotinamide]"
160,510,"CC(=O)c1ccc(-c2cnc(N)c(C(=O)Nc3ccncc3)c2)s1 [Compound A53, 5-(5-Acetyl-thiophen-2-yl)-2-amino-N-pyridin-4-yl-nicotinamide]"
1200,890,"COCCn1cc(-c2cnc(N)c(C(=O)Nc3ccnnc3)c2)cn1 [Compound A24, 2-Amino-5-[1-(2-methoxy-ethyl)-1H-pyrazol-4-yl]-N-pyridazin-4-yl-nicotinamide]"
120,240,"Nc1ncc(-c2cnn(Cc3ccccc3)c2)cc1C(=O)Nc1ccncc1 [Compound A46, 2-Amino-5-(1-benzyl-1H-pyrazol-4-yl)-N-pyridin-4-yl-nicotinamide]"
140,330,"Nc1ncc(-c2csc(CN3CCOCC3)c2)cc1C(=O)Nc1ccncc1 [Compound A43, 2-Amino-5-(5-morpholin-4-ylmethyl-thiophen-3-yl)-N-pyridin-4-yl-nicotinamide]"
400,990,"Nc1ncc(-c2ccc(C(=O)O)cc2)cc1C(=O)Nc1ccncc1 [Compound A31, 4-[6-Amino-5-(pyridin-4-ylcarbamoyl)-pyridin-3-yl]-benzoic acid]"
